Measured values as given in ChEMBL document CHEMBL4033675, “Identification of novel 1,2,3,6-tetrahydropyridyl-substituted benzo[d]thiazoles: Lead generation and optimization toward potent and orally active EP1 receptor antagonists” (Bioorg Med Chem, 2017).
The source made the active and inactive calls. No cut-off for these calls is given here.

molecular target: T1, Prostaglandin E2 receptor EP1 subtype (Rattus norvegicus, UniProt P70597); test: Antagonist activity at rat EP1 receptor expressed in African green monkey COS1 cells assessed as inhibition of prostaglandin-E2-induced increase in intracellular calcium level preincubated for 60 secs followed by prostaglandin-E2 addition measured for 60 secs by Fluo 4-AM dye based fluorescence assay; type: functional, cell-based; conditions: not given
T1 sequence (P70597 whole entry): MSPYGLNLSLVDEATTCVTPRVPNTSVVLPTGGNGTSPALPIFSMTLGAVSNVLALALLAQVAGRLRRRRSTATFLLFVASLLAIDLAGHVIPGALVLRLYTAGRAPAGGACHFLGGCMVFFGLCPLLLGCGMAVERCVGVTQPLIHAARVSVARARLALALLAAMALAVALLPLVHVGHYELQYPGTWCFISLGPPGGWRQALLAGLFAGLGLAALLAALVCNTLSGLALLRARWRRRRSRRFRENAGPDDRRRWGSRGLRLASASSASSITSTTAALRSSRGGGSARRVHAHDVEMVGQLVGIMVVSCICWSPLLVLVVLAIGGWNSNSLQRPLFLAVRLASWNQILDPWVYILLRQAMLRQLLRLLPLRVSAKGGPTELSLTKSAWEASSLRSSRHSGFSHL

In order of rising IC50:
1. Cc1cc(C(=O)O)nn1Cc1cc(Cl)cc2sc(N3CC=CCC3)nc12  1.1 nM
2. CCN(CC)c1nc2c(Cn3nc(C(=O)O)cc3C)cc(Cl)cc2s1  6.2 nM
3. O=C(O)c1ccc(Sc2cc(Cl)cc3sc(N4CC=CCC4)nc23)o1  6.4 nM
4. C=Cc1cc(Cn2nc(C(=O)O)cc2C)c2nc(N3CC=CCC3)sc2c1  9.9 nM
5. CCN(C)c1nc2c(Cn3nc(C(=O)O)cc3C)cc(Cl)cc2s1  13 nM
6. Cc1cc(C(=O)O)nn1Cc1cc(F)cc2sc(N3CC=CCC3)nc12  17 nM
7. Cc1cc(C(=O)O)nn1Cc1cc(Br)cc2sc(N3CC=CCC3)nc12  22 nM
8. Cc1cc(C(=O)O)nn1Cc1cc(Cl)cc2sc(N3CCCC3)nc12  30 nM
9. CC1=CCCN(c2nc3c(Cn4nc(C(=O)O)cc4C)cc(Cl)cc3s2)C1  30 nM
10. Cc1cc(C(=O)O)nn1Cc1cc(Cl)cc2sc(-c3ccccc3)nc12  31 nM
11. Cc1cc(C(=O)O)nn1Cc1cccc2sc(N3CC=CCC3)nc12  32 nM
12. C=C(C)c1nc2c(Cn3nc(C(=O)O)cc3C)cc(Cl)cc2s1  33 nM
13. COc1cc(Cn2nc(C(=O)O)cc2C)c2nc(N3CC=CCC3)sc2c1  37 nM
14. Cc1cc(C(=O)O)nn1Cc1cc(Cl)cc2sc(N3CCCCC3)nc12  43 nM
15. O=C(O)c1ccn(Cc2cc(Cl)cc3sc(N4CC=CCC4)nc23)n1  51 nM
16. O=C(O)c1ccc(Cc2cc(Cl)cc3sc(N4CC=CCC4)nc23)o1  60 nM
17. Cc1cc(C(=O)O)nn1Cc1cc(Cl)cc2sc(N3CCOCC3)nc12  63 nM
18. CC1=CCN(c2nc3c(Cn4nc(C(=O)O)cc4C)cc(Cl)cc3s2)CC1  64 nM
19. Cc1cc(C(=O)O)nn1Cc1cc(Cl)cc2sc(N3CCSCC3)nc12  66 nM
20. Cc1cc(C(=O)O)nn1Cc1cc(OC(F)(F)F)cc2sc(N3CC=CCC3)nc12  97 nM
21. Cc1cc(C(=O)O)nn1Cc1cc(Cl)cc2sc(N(C)C)nc12  100 nM
22. Cc1cc(C(=O)O)nn1Cc1cc(Cl)cc2sc(C3=CCCCC3)nc12  110 nM
23. Cc1cc(C(=O)O)nn1Cc1cc(Cl)cc2sc(N3CC=CC3)nc12  110 nM
24. O=C(O)c1ccc(Oc2cc(Cl)cc3sc(N4CC=CCC4)nc23)o1  150 nM
25. C=C(C)c1cc(Cn2nc(C(=O)O)cc2C)c2nc(N3CC=CCC3)sc2c1  160 nM
26. CC(=O)c1cc(Cn2nc(C(=O)O)cc2C)c2nc(N3CC=CCC3)sc2c1  200 nM
27. Cc1cc(C(=O)O)nn1Cc1cc(N(C)C)cc2sc(N3CC=CCC3)nc12  210 nM
28. Cc1cc(C(=O)O)nn1Cc1cc(C#N)cc2sc(N3CC=CCC3)nc12  230 nM
29. O=C(O)c1ccn(Cc2cc(Cl)cc3sc(N4CC=CCC4)nc23)c1  240 nM
30. CCCN(CC)c1nc2c(Cn3nc(C(=O)O)cc3C)cc(Cl)cc2s1  270 nM
31. Cc1cc(C(=O)O)nn1Cc1cc(Cl)cc2sc(N3CCCCCC3)nc12  270 nM
32. Cc1cc(C(=O)O)nn1Cc1cc(Cl)cc2sc(N3CCC3)nc12  320 nM
33. Cc1cc(C(=O)O)nn1Cc1cc(Cl)cc2sc(C3CCCCC3)nc12  430 nM
34. CNc1nc2c(Cn3nc(C(=O)O)cc3C)cc(Cl)cc2s1  470 nM
35. Cc1cc(C(=O)O)nn1Cc1cc(Cl)cc2nc(-c3ccccc3)oc12  750 nM
36. Cc1cc(Cn2nc(C(=O)O)cc2C)c2nc(N3CC=CCC3)sc2c1  2500 nM
37. Cc1cc(C(=O)O)nn1Cc1cc(Cl)cc2sc(N3CCS(=O)(=O)CC3)nc12  4200 nM
38. Cc1cc(C(=O)O)nn1Cc1cc(Cl)cc2sc(N3CCN(C)CC3)nc12  4900 nM
39. CC1=C(C)CN(c2nc3c(Cn4nc(C(=O)O)cc4C)cc(Cl)cc3s2)CC1  5200 nM
40. Cc1cc(C(=O)O)nn1Cc1cc(N)cc2sc(N3CC=CCC3)nc12  7800 nM
41. Cc1cc(C(=O)O)nn1Cc1cc(C(=O)O)cc2sc(N3CC=CCC3)nc12  7900 nM
42. Cc1cc(C(=O)O)nn1Cc1cc(Cl)cc2nc(-c3ccccc3)sc12  7950 nM
43. Cc1cc(C(=O)O)nn1Cc1cc(Cl)cc2oc(-c3ccccc3)nc12  8700 nM
44. CNc1cc(Cn2nc(C(=O)O)cc2C)c2nc(N3CC=CCC3)sc2c1  8800 nM

test system: Rattus norvegicus; test: Inhibition of 17-PTP-induced increase in intravesical pressure in intraduodenally dosed rat overactive bladder model pretreated for 5 mins followed by 17-PTP treatment with 30 mins time interval for 245 mins; type: functional, organism-based; conditions: not given

In the case of `Cc1cc(C(=O)O)nn1Cc1cc(Cl)cc2sc(-c3ccccc3)nc12`, the inhibition is reported as “inactive”.
For `Cc1cc(C(=O)O)nn1Cc1cc(Cl)cc2sc(N3CC=CCC3)nc12`, the inhibition was “Dose-dependent effect”.

test system: not listed separately; test: Half life in rat at 1 mg/kg, iv; type: ADME, organism-based; conditions: in vivo

`Cc1cc(C(=O)O)nn1Cc1cc(Cl)cc2sc(N3CC=CCC3)nc12` showed a half-life of 40.7 min.

test system: not listed separately; test: AUC (0 to infinity) in rat at 1 mg/kg, iv; type: ADME, organism-based; design: dose 1 mg/kg, time infinity, route intravenous; conditions: in vivo

For `Cc1cc(C(=O)O)nn1Cc1cc(Cl)cc2sc(N3CC=CCC3)nc12`, the AUC(0-inf) was 4480 ng·h/mL.

test system: not listed separately; test: Volume of distribution in rat at 1 mg/kg, iv; type: ADME, organism-based; conditions: in vivo

Work on `Cc1cc(C(=O)O)nn1Cc1cc(Cl)cc2sc(N3CC=CCC3)nc12` yielded a Vd of 0.184 L/kg.

test system: not listed separately; test: Total clearance in rat at 1 mg/kg, iv; type: ADME, organism-based; conditions: in vivo

`Cc1cc(C(=O)O)nn1Cc1cc(Cl)cc2sc(N3CC=CCC3)nc12` showed a clearance of 3.79 mL/min/kg.

test system: not listed separately; test: Initial concentration in rat at 1 mg/kg, iv; type: ADME, organism-based; conditions: in vivo

`Cc1cc(C(=O)O)nn1Cc1cc(Cl)cc2sc(N3CC=CCC3)nc12` gave a C0 of 6000 ng/mL.

test system: not listed separately; test: Chemical stability of the compound in pH 1 acidic aqueous medium; type: physicochemical; conditions: buffer

For `Cc1cc(C(=O)O)nn1Cc1cc(Cl)cc2sc(N3CC=CCC3)nc12`, the Stability was “Stable”.
